According to PubChem BioAssay (NCI):
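How tested: cells in 96-well plates exposed to compound for 48 hours at five concentrations. The concentration for 50% growth inhibition is given as GI50. TGI is the concentration that stops growth completely.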

How the values were obtained:
Test in all cases: NCI anticancer screen, dose series, 48 h
A498 renal = system: A498 renal
NCI-H226 lung = system: NCI-H226 lung
M14 melanoma = system: M14 melanoma
EKVX NSCLC = system: EKVX NSCLC
SK-MEL-2 melanoma = system: SK-MEL-2 melanoma
DU-145 prostate = system: DU-145 prostate
HOP-92 NSCLC = system: HOP-92 NSCLC
IGROV1 ovarian = system: IGROV1 ovarian
SF-295 CNS = system: SF-295 CNS

SMILES	TGI (A498 renal) [µM]	TGI (NCI-H226 lung) [µM]	TGI (M14 melanoma) [µM]	TGI (EKVX NSCLC) [µM]	TGI (SK-MEL-2 melanoma) [µM]	TGI (DU-145 prostate) [µM]	TGI (HOP-92 NSCLC) [µM]	TGI (IGROV1 ovarian) [µM]	TGI (SF-295 CNS) [µM]	GI50 (NCI-H226 lung) [µM]	GI50 (M14 melanoma) [µM]	GI50 (EKVX NSCLC) [µM]	GI50 (SK-MEL-2 melanoma) [µM]	GI50 (HOP-92 NSCLC) [µM]	GI50 (IGROV1 ovarian) [µM]	GI50 (SF-295 CNS) [µM]
CCN(CC)CCOc1ccc(/C=C(\C#N)c2ccc(OCCN(CC)CC)cc2)cc1	32.2	> 78.4	19.9	> 80.6	39.9	> 100	55.4	> 52.4	28	–	–	–	–	–	–	–
Cc1ccccc1N1C(=O)/C(=C/c2ccc(N(CCC#N)CCC#N)cc2)N=C1c1cc([N+](=O)[O-])ccc1Cl	> 100	> 100	> 100	–	> 100	–	–	> 100	> 100	–	–	–	–	–	–	–
O=C1CCCC/C(=C/c2ccccc2)N1	> 100	> 100	> 100	> 100	> 100	–	> 100	> 100	> 100	–	–	–	–	–	–	–
O=c1nc2occc2cn1C1CC(O)C(CO)O1 (stereo not given)	> 100	> 100	> 100	> 100	–	–	> 100	> 100	> 100	–	–	–	–	–	–	–
COC(=O)C(C(=O)C(=O)Nc1cccc(OC)c1)c1cnc2ccccc2n1 (stereo not given)	> 100	> 100	> 100	> 100	> 100	–	> 100	> 100	> 100	–	–	–	–	–	–	–
COC(=O)C1=C(C)N(NC(=O)c2ccccc2)C(C)(O)C12CCOC2=O (stereo not given)	> 100	> 100	> 100	> 100	2.41	–	–	> 100	> 100	–	–	–	–	–	–	–
CC(O)C(N=Cc1ccccc1[O-])C(=O)[O-].CC(O)C(N=Cc1ccccc1[O-])C(=O)[O-].[Co+2] (stereo not given)	–	> 100	> 100	> 100	> 100	–	> 100	> 100	> 100	28.6	> 100	> 100	> 100	47.7	> 100	> 100
CC1=Nc2ccccc2C1C(Cc1ccccc1N)c1c(C)[nH]c2ccccc12 (stereo not given)	29.8	32.9	28.3	37.7	23	–	26.1	36	25.8	–	–	–	–	–	–	–
CC1OC(n2cc(F)c(=O)[nH]c2=O)C=CC1O (stereo not given)	> 100	> 100	> 100	> 100	> 100	–	> 100	> 100	> 100	–	–	–	–	–	–	–
